# Measured values reported in US10076519B2 (CYTOKINETICS, INC., priority 2010, dated 2018).
# Tested on: rabbit skeletal myofibrils (fast skeletal myofibrils)
# Experiment: Activation of fast skeletal myofibrils (PUMA assay, PK/LDH-coupled ATPase at pCa25)
# Assay type: biochemical
# Settings: AC1.4 determined according to the procedure of Example 39; reported as class symbols
# Procedure, shortened: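 Detergent-washed rabbit psoas myofibrils (~90% fast fibres, calcium-regulated) assayed at calcium giving 25% of maximal ATPase rate (pCa25). ADP turnover coupled via pyruvate kinase/lactate dehydrogenase to NADH oxidation, read at 340 nm. Buffer 12 mM PIPES, 2 mM MgCl2, 1 mM DTT, pH 6.8; AC1.4 values derived.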
row,Compound,Mean AC1.4
1,CN1CCN(C(=O)c2ccc(NCC(C)(C)c3ccc(F)cc3)nn2)CC1 [6-{[2-(4-fluorophenyl)-2-methylpropyl]amino}pyridazin-3-yl 4-methylpiperazinyl ketone],D (D=>20 uM)
2,Nc1n[nH]c2ccc(-c3ccc(NCC4(c5ccc(F)cc5)CCCCC4)nn3)cc12 [[6-(3-amino(1H-indazol-5-yl))pyridazin-3-yl]{[(4-fluorophenyl)cyclohexyl]meth-yl}amine],A (A=<1 uM)
3,CC(C)(CNc1ccc(-c2ccc3[nH]nc(N)c3c2)nn1)c1ccccc1CO,B (B=1-10 uM)

# Next, values leading:
row,Mean AC1.4,Compound
1,D (D=>20 uM),COc1ccc(C2(CNc3ccc(-c4cc(C(N)=O)ccc4F)nn3)CCC2)nc1
2,A (A=<1 uM),Fc1cccnc1C1(CNc2ccc(-c3ccc4[nH]ncc4c3)nn2)CCC1 [(6-(1H-indazol-5-yl)pyridazin-3-yl){[(3-fluoro(2-pyridyl))cyclobutyl]methyl}amine]
3,D (D=>20 uM),CC(C)(CNc1ccc(C(=O)N[C@@H](CO)C(N)=O)nn1)c1ccc(F)cc1 [N-((1S)-1-carbamoyl-2-hydroxyethyl)(6-{[2-(4-fluorophenyl)-2-methylpropyl]amino}pyridazin-3-yl)carboxamide]
4,A (A=<1 uM),CC(C)(CNc1ccc(-c2ccc3[nH]c(=O)[nH]c3c2)nn1)c1ccc(F)cc1
5,D (D=>20 uM),CC(Nc1ccc(-c2cccc(C(N)=O)c2)nn1)c1ccccc1 (stereo not shown)

# Same assay, conditions: median AC1.4 class, procedure of Example 39
row,Compound,Mean AC1.4
1,COc1cccnc1C1(Nc2ccc(-c3cc(C(N)=O)ccc3F)nn2)CCC1,C (C=10-20 uM)
2,CC(=O)c1ccc(NCC2(c3ncccc3F)CCC2)nn1,D (D=>20 uM)
3,NS(=O)(=O)Nc1ccc(F)c(-c2ccc(NC3(c4ncccc4F)CCC3)nn2)c1,B (B=1-10 uM)
4,"COc1nc(-c2ccc(NCC3(c4ncccc4F)CCC3)nn2)sc1C(=O)O [2-[6-({[(3-fluoro(2-pyridyl))cyclobutyl]methyl}ami-no)pyridazin-3-yl]-4-methoxy-1,3-thiazole-5-carboxylic acid]",C (C=10-20 uM)
5,Cn1nc(C(N)=O)cc1-c1ccc(NCC2(c3ncccc3F)CCC2)nn1,B (B=1-10 uM)
6,"NC(=S)c1cnc(-c2ccc(NCC3(c4ncccc4F)CCC3)nn2)s1 [amino{2-[6-({[(3-fluoro(2-pyridyl))cyclobutyl]methyl}ami-no)pyridazin-3-yl](1,3-thiazol-5-yl)}methane-1-thione]",A (A=<1 uM)

# Second part, the compound after the results:
row,Mean AC1.4,Compound
1,A (A=<1 uM),"O=C(NCc1cnc(-c2ccc(NCC3(c4ncccc4F)CCC3)nn2)s1)[C@@H]1CCCN1 [((2S)pyrrolidin-2-yl)-N-({2-[6-({[(3-fluoro(2-pyridyl))cyclobutyl]methyl}ami-no)pyridazin-3-yl](1,3-thiazol-5-yl)}methyl)carboxamide]"
2,B (B=1-10 uM),NC(=O)c1cnc(-c2ccc(NCC3(c4ncccc4F)CCC3)nn2)o1
3,A (A=<1 uM),"O=c1[nH]nc(-c2ccc(-c3ccc(NCC4(c5ncccc5F)CCC4)nn3)s2)[nH]1 [3-{5-[6-({[(3-fluoro-2-pyridyl)cyclobutyl]methyl}ami-no)pyridazin-3-yl]-2-thienyl}-1,2,4-triazolin-5-one]"
4,D (D=>20 uM),"ethyl 2-[6-({[(3-fluoro-2- pyridyl)cyclobutyl]methyl}ami- no)pyridazin-3-yl]-1,3-thiazole-4- carboxylate"
5,B (B=1-10 uM),COc1cccc(C2(Nc3ccc(-c4cccc(C(N)=O)c4)nn3)CCC2)n1
6,A (A=<1 uM),NC(=O)Nc1ccc(-c2ccc(NCC3(c4ncccc4F)CCC3)nn2)cc1

# Same assay, conditions: median AC1.4 reported as class; procedure of Example 39
row,Compound,Mean AC1.4
1,NC(=O)c1cc(-c2ccc(NCC3(c4ncccc4F)CCC3)nn2)c[nH]c1=O [5-[6-({[(3-fluoro(2-pyridyl))cyclobutyl]methyl}ami-no)pyridazin-3-yl]-2-oxohydropyridine-3-carboxamide],C (C=10-20 uM)
2,"CCOC(=O)c1coc(NC(=O)c2ccc(NCC3(c4ncccc4F)CCC3)nn2)n1 [ethyl 2-{[6-({[(3-fluoro-2-pyridyl)cyclobutyl]methyl}ami-no)pyridazin-3-yl]carbonylamino}-1,3-oxazole-4-carboxylate]",D (D=>20 uM)
